Laboratory results from PubChem BioAssay (NCI).
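Growth conditions: 96-well plates. Treatment: test compound, 48 hours, 5 concentrations. Analysis: linear interpolation between bracketing concentrations; unreached endpoints set to highest concentration. At the TGI there is no net growth.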

Assays:
Assay in all cases: DTP human tumour cell line panel, 48 h
[1] = tested on: 786-0 renal
[2] = tested on: A498 renal
[3] = tested on: A549 NSCLC
[4] = tested on: ACHN renal
[5] = tested on: BT-549 breast
[6] = tested on: CAKI-1 renal
[7] = tested on: CCRF-CEM leukemia
[8] = tested on: COLO 205 colon
[9] = tested on: DU-145 prostate
[10] = tested on: EKVX NSCLC
[11] = tested on: HCC-2998 colon
[12] = tested on: HCT-116 colon
[13] = tested on: HCT-15 colon
[14] = tested on: HL-60(TB) leukemia
[15] = tested on: HOP-62 NSCLC
[16] = tested on: HOP-92 NSCLC
[17] = tested on: HS 578T breast
[18] = tested on: HT29 colon
[19] = tested on: IGROV1 ovarian
[20] = tested on: K-562 leukemia
[21] = tested on: KM12 colon
[22] = tested on: LOX IMVI melanoma
[23] = tested on: M14 melanoma
[24] = tested on: MALME-3M melanoma
[25] = tested on: MCF7 breast
[26] = tested on: MDA-MB-231 breast
[27] = tested on: MDA-MB-435
[28] = tested on: MDA-N
[29] = tested on: MOLT-4 leukemia
[30] = tested on: NCI-H226 lung
[31] = tested on: NCI-H23 lung
[32] = tested on: NCI-H460 lung
[33] = tested on: NCI-H522 lung
[34] = tested on: NCI/ADR-RES ovarian
[35] = tested on: OVCAR-3 ovarian
[36] = tested on: OVCAR-4 ovarian
[37] = tested on: OVCAR-5 ovarian
[38] = tested on: OVCAR-8 ovarian
[39] = tested on: PC-3 prostate
[40] = tested on: RPMI-8226 leukemia
[41] = tested on: RXF 393 renal
[42] = tested on: SF-268 CNS
[43] = tested on: SF-295 CNS
[44] = tested on: SK-MEL-2 melanoma
[45] = tested on: SK-MEL-28 melanoma
[46] = tested on: SK-MEL-5 melanoma
[47] = tested on: SK-OV-3 ovarian
[48] = tested on: SN12C renal
[49] = tested on: SNB-19 CNS
[50] = tested on: SNB-75 CNS
[51] = tested on: SR leukemia
[52] = tested on: SW-620 colon
[53] = tested on: T-47D breast
[54] = tested on: TK-10 renal
[55] = tested on: U251 CNS
[56] = tested on: UACC-257 melanoma
[57] = tested on: UACC-62 melanoma
[58] = tested on: UO-31 renal
[59] = tested on: DLD-1 colon
[60] = tested on: DMS 114 small cell lung
[61] = tested on: DMS 273 small cell lung
[62] = tested on: LXFL 529 NSCLC
[63] = tested on: M19-MEL melanoma
[64] = tested on: SF-539 CNS
[65] = tested on: SNB-78 CNS

## C/C1=C\CC[C@@]2(C)O[C@@H]2C[C@@H]2[C@H](C/C(C)=C/CC1)OC(=O)[C@]21CO1
[1]
  TGI: > 100 µM
[2]
  TGI: > 100 µM
[3]
  TGI: > 100 µM
[4]
  TGI: > 100 µM
[5]
  TGI: > 100 µM
[6]
  TGI: > 100 µM
[7]
  TGI: > 100 µM
[8]
  TGI: > 100 µM
[9]
  TGI: > 100 µM
[10]
  TGI: > 100 µM
[11]
  TGI: > 100 µM
[12]
  TGI: > 100 µM
[13]
  TGI: > 100 µM
[14]
  TGI: > 100 µM
[15]
  TGI: > 100 µM
[16]
  TGI: > 100 µM
[17]
  TGI: > 100 µM
[18]
  TGI: > 100 µM
[19]
  TGI: > 100 µM
[20]
  TGI: > 100 µM
[21]
  TGI: > 100 µM
[22]
  TGI: 44.6 µM
[23]
  TGI: > 100 µM
[24]
  TGI: > 100 µM
[25]
  TGI: > 100 µM
[26]
  TGI: > 100 µM
[27]
  TGI: > 100 µM
[28]
  TGI: > 100 µM
[29]
  TGI: > 100 µM
[30]
  TGI: > 100 µM
[31]
  TGI: > 100 µM
[32]
  TGI: 45.1 µM
[33]
  TGI: > 100 µM
[34]
  TGI: > 100 µM
[35]
  TGI: > 100 µM
[36]
  TGI: > 100 µM
[37]
  TGI: > 100 µM
[38]
  TGI: > 100 µM
[39]
  TGI: > 100 µM
[40]
  TGI: > 100 µM
[41]
  TGI: > 100 µM
[42]
  TGI: > 100 µM
[43]
  TGI: > 100 µM
[44]
  TGI: > 100 µM
[45]
  TGI: > 100 µM
[46]
  TGI: > 100 µM
[47]
  TGI: > 100 µM
[48]
  TGI: > 100 µM
[49]
  TGI: > 100 µM
[50]
  TGI: > 100 µM
[51]
  TGI: > 100 µM
[52]
  TGI: > 100 µM
[53]
  TGI: > 100 µM
[54]
  TGI: > 100 µM
[55]
  TGI: > 100 µM
[56]
  TGI: > 100 µM
[57]
  TGI: > 100 µM
[58]
  TGI: > 100 µM

## O=S1(=O)OCCOS(=O)(=O)C1(Br)Br
[1]
  TGI: > 100 µM
[3]
  TGI: > 100 µM
[6]
  TGI: > 100 µM
[7]
  TGI: > 100 µM
[8]
  TGI: > 100 µM
[59]
  TGI: > 100 µM
[60]
  TGI: > 100 µM
[61]
  TGI: > 100 µM
[10]
  TGI: > 100 µM
[11]
  TGI: > 100 µM
[12]
  TGI: > 100 µM
[14]
  TGI: > 100 µM
[15]
  TGI: > 100 µM
[16]
  TGI: > 100 µM
[18]
  TGI: > 100 µM
[20]
  TGI: > 100 µM
[21]
  TGI: > 100 µM
[62]
  TGI: > 100 µM
[23]
  TGI: > 100 µM
[63]
  TGI: > 100 µM
[24]
  TGI: > 100 µM
[29]
  TGI: > 100 µM
[30]
  TGI: 94.1 µM
[31]
  TGI: > 100 µM
[33]
  TGI: > 100 µM
[35]
  TGI: > 100 µM
[36]
  TGI: > 100 µM
[38]
  TGI: > 100 µM
[40]
  TGI: > 100 µM
[42]
  TGI: > 100 µM
[43]
  TGI: > 100 µM
[64]
  TGI: > 100 µM
[44]
  TGI: > 100 µM
[45]
  TGI: > 100 µM
[46]
  TGI: > 100 µM
[47]
  TGI: > 100 µM
[48]
  TGI: > 100 µM
[49]
  TGI: > 100 µM
[50]
  TGI: > 100 µM
[65]
  TGI: > 100 µM
[51]
  TGI: > 100 µM
[52]
  TGI: > 100 µM
[54]
  TGI: > 100 µM
[56]
  TGI: > 100 µM
[57]
  TGI: > 100 µM
[58]
  TGI: > 100 µM
